Assay results: article PMC10765884, “MC180295 is a highly potent and selective CDK9 inhibitor with preclinical in vitro and in vivo efficacy in cancer” (Clinical Epigenetics, 2024)
Entries after “also recorded” stand apart in the source; their conditions may differ.

How the values were obtained:
[1] = tested on: SW48 cells; test: SW48 colon cancer xenograft in NSG mice; assay type: in vivo; settings: for survival / tumor growth / tumor size: SW48 s.c. in NSG mice, 20 mg/kg i.p. q.o.d.; for tumor growth / tumor size: vs vehicle
Procedure: Fig. 3 Antitumor, survival, and metabolic effects of MC180295 and its enantiomers, MC180379 and MC180380. A Antitumor effects of MC180295, MC180379, and MC180380. NSG mice were inoculated (s.c.) with 2 × 10^6 SW48 cells. Eleven days later, when tumors were palpable, 20 mg/kg MC180295, MC180379, MC180380, or vehicle were administered (i.p.) every other day (q.o.d.). Tumor sizes were measured using a caliper. […] . C Antitumor effects of MC180379 and MC180380. NSG mice were inoculated (s.c.) with 1 × 10^6 HT29 cells. Twelve days later, when tumors were palpable, 20 mg/kg MC180379, MC180380, or vehicle were administered (i.p.) q.o.d. Tumor sizes were measured using a caliper. D HT29-xenografted mouse survival following (i.p.) q.o.d. dosing with 20 mg/kg MC180379 or MC180380. E NSG mice were inoculated (i.p.) with 5 × 10^5 MV4-11-luc cells. Four days later, when substantial tumor burden was evident by bioluminescence imaging, MC180379, MC180380, or vehicle were administered (i.p.) q.o.d at 20 mg/kg. Luciferase expression was quantified and calculated. F Mouse survival in days. […] G In vitro liver microsome stability and rat hepatocyte/Sprague–Dawley stability assay comparing MC180379 to MC180380. The dog breed was beagle and the mouse microsome strain was CD-1. All sexes (including the hepatocytes) were male except the human microsomes which were mixed gender. Significances were calculated using log-rank (Mantel-Cox) or Student’s t tests.
Fig. 4 Antitumor and survival-extending properties of a hypomethylating agent (DAC) combined with MC180295. A Antitumor effects of MC180295 and MC180295 + DAC. NSG mice were inoculated (s.c.) with 2 × 10^6 SW48 cells. Eleven days later, when tumors were palpable, 20 mg/kg MC180295 or vehicle were administered (i.p.) q.o.d. 0.5 mg/kg DAC was administered (i.p.) daily. Tumor sizes were measured using a caliper. B Mouse survival in days. 20 mg/kg MC180295 was administered (i.p.) q.o.d. 0.5 mg/kg DAC was administered (i.p.) daily. C NSG mice were inoculated (i.p.) with 5 × 10^5 MV4-11-luc cells. Four days later, when substantial tumor burden was evident by bioluminescence imaging, MC180295 (20 mg/kg) or vehicle were administered (i.p.) every other day. 0.5 mg/kg DAC was administered (i.p.) daily. Luciferase expression was quantified and calculated. […] E Antitumor effects of MC180380 and MC180380 + DAC. NSG mice were inoculated (s.c.) with 2 × 10^6 SW48 cells. Eleven days later, when tumors were palpable, 10 mg/kg MC180380, 20 mg/kg MC180380, or vehicle was administered (i.p.) q.o.d. 0.5 mg/kg DAC was administered (i.p.) daily. Mouse survival shown in days. Significances were calculated using log-rank (Mantel-Cox) or Student's t tests. Data are shown as means ± SEMs. ***p < 0.001
For the s.c. SW48 model, 2 × 10^6 cells were injected into the flanks of randomly assigned, gender-matched 8–10-week-old NSG mice.

[2] = Drug toxicity: body weights and complete blood counts in tumor-bearing mice; assay type: in vivo
Procedure: For the s.c. SW48 model, 2 × 10^6 cells were injected into the flanks of randomly assigned, gender-matched 8–10-week-old NSG mice. 20 mg/kg MC180379, MC180380, or MC180295 was injected (i.p.), every other day, when the tumors were palpable, 11 days after engraftment, until endpoints were met. Mice were sacrificed before tumor volumes exceeded 400 mm^2 (endpoint for this model). For the s.c. HT29 model, 2 × 10^6 cells were injected into the flanks of randomly assigned, gender-matched, 8–10-week-old NSG mice. 20 mg/kg MC180379 or MC180380 was injected (i.p.), every other day, when the tumors were palpable, 12 days after engraftment, until endpoints were met. Mice were sacrificed before tumors volumes exceeded 400 mm^2 (used as the endpoint for this model). For the CT26.CL25 model, 5 × 10^5 cells were injected into the flanks of randomly assigned female 8–10-week-old B6 mice. 20 mg/kg MC180295 was injected (i.p.), every other day, when the tumors were palpable, 8 days after engraftment, until endpoints were met. 0.5 mg/kg DAC was injected (i.p.) daily until an endpoint was met. Mice were sacrificed when they developed serious tumoral ulcerations. CD8 + T cells were depleted using an anti-CD8 antibody (InVivoMAb anti-mouse CD8 (Lyt 2.1), BE0118) on days 4, 5, and 11 after inoculation. MC180295, MC180379, and MC180380 were dissolved in NMP (Fisher Scientific), Captisol® (20% w/v) (CyDex), PEG-400 (Millipore Sigma), and normal saline (PBS) (Corning), at a ratio of 1:4:4:11. NMP was added first, followed by Captisol and PEG-400. PBS was added last. DAC was dissolved in water. In a subset of the experiments, after mice were sacrificed, peripheral blood was collected, and complete blood counts were obtained using Abaxis VetScan HM5.

[3] = tested on: GFP silenced by a methylated CMV promoter in YB5 cells; test: Live-cell assay for GFP reactivation in YB5 cells; assay type: cell-based; settings: for lowest concentration reactivating GFP: after 24 h treatment, FACS
Procedure: To identify novel epigenetic targets, we previously used a phenotype-based screen, the YB5 SW48 daughter cell line reporter system, to identify drugs that can reactivate GFP silenced by a methylated CMV promoter. […] […]. To better understand MC180295's antitumor effects, we tested its growth inhibition in a panel of cancer cell lines.
The live-cell assay for GFP reactivation in YB5 cells was done as previously described. Cells were treated with a single dose of drug 24 h after seeding at low density, and GFP fluorescence measured in a Millipore Guava flow cytometer (EMD, Millipore) instrument, or by imaging in a Cytation instrument (Agilent). Cancer cell lines (listed in Additional file 1: Fig. S1A) were obtained from ATCC or the Temple/Fox Chase Cellular Repository and cultured in the recommended medium. To measure growth inhibition, cells were seeded in 96-well plates at 40% confluency. Fresh medium was changed the next day and drugs were added directly. Drug-free fresh medium was changed on the fourth day. The cells were collected on day 5 by trypsin, suspended in medium, mixed with trypan blue (Thermo Fisher Scientific) (1:1 ratio), and counted using a LUNA II automated cell counter. Each sample was counted at least three times, and average numbers used for the analysis. Each treatment condition was performed in biological triplicates.

[4] = HT29 model, 20 mg/kg i.p. q.o.d.
[5] = SW48 model, 20 mg/kg i.p. q.o.d.

Row | SMILES | overall survival, dose comparison ([1]; SW48 in NSG mice, 10 or 20 mg/kg MC180380 i.p. q.o.d.) | survival ([1]; 20 mg/kg) | absolute lymphocyte and monocyte counts [2, 4] | platelet counts [2, 4] | platelet counts [2, 5] | tolerability; neutrophil, lymphocyte, monocyte counts [2, 5] | body weights ([2]; SW48 model, NSG mice, Fig. S4E) | bone marrow suppression ([2]; in vivo, from lymphocyte, monocyte and platelet counts) | potency in inducing GFP (comparison of enantiomers) ([3]; 24 h and 4 days after one-time treatment) | lowest concentration reactivating GFP [3] [nM] | survival [1] | tumor growth / tumor size ([1]; 20 mg/kg) | tumor growth / tumor size ([1]; listed as MC190295, 20 mg/kg) | body weights ([2]; CT26.CL25 immunocompetent mice, after CD8 depletion, Fig. S5B) | body weights ([2]; CT26.CL25 immunocompetent mouse model, Fig. S5A) | body weights ([2]; SW48 model, NSG mice, Fig. S4C)
1 | Nc1nc(N[C@H]2C[C@@H]3CC[C@H]2C3)sc1C(=O)c1ccccc1[N+](=O)[O-] [MC180380] | 20 mg/kg led to better overall survival than 10 mg/kg | no survival difference | higher absolute lymphocyte and monocyte counts than MC180379-treated mice | higher platelet counts than those treated with MC180379 | slightly higher platelet counts than MC180379 | well-tolerated | did not affect NSG mouse body weights | less bone marrow-suppressive (and thus less toxic) than MC180379 | more potent than MC18379 in inducing GFP; also recorded: epigenetically more potent than MC180379 | 100 |  |  |  |  |  | 
2 | Nc1nc(N[C@@H]2C[C@H]3CC[C@@H]2C3)sc1C(=O)c1ccccc1[N+](=O)[O-] [MC180379] |  |  |  |  |  | well-tolerated |  |  |  | 500 | no survival difference |  |  |  |  | 
3 | Nc1nc(N[C@H]2C[C@@H]3CC[C@H]2C3)sc1C(=O)c1ccccc1[N+](=O)[O-] (relative stereo) [MC180295] |  | prolong overall survival |  |  |  |  |  |  |  | 100 |  | significantly reduce tumor size | no statistical difference in tumor size | neither MC180295 nor MC180295 + DAC treatment affected NSG mouse body weights, after CD8 depletion | neither MC180295 nor MC180295 + DAC treatment affected NSG mouse body weights | did not affect NSG mouse body weights
